Results on 1 compound are retold here after patent US9232792B2, “Method for promoting plant growth” (SUMITOMO CHEMICAL COMPANY, LIMITED, priority 2011, dated 2016).

What all share (assay type): in vivo
For assay [1], the system named is Rice (cultivar: Nipponbare). Nature of the assay: Test Example 1: promotion of root growth in hydroponics of rice. As to conditions: 1 ppm in hydroponic solution; 3 days germination + 3 days cultivation. How it is done:
Rice (cultivar: Nipponbare)
DMSO solutions containing each of the present compounds 1 to 3 at 10,000 ppm were prepared. A 1/10,000 volume of each DMSO solution containing each of the present compounds 1 to 3 at 10,000 ppm was added to a Hoagland solution for hydroponics at ¼ concentration (Hoagland and Arnon, California Agricultural Experiment Station 1950 Circular 347 pp. 34) to obtain a solution for hydroponics containing each of the present compounds 1 to 3 at 1 ppm. These solutions were used in the treated-group.
In a non-treated group, a solution for hydroponics obtained by adding a Hoagland solution for hydroponics at ¼ concentration to a 1/10,000 volume of DMSO was used.
The rice seeds were immersed in an aqueous solution of 1% sodium hypochlorite for 10 minutes, followed by 70% ethanol solution to sterilize their surfaces. After that, the seeds were washed with distilled water. The sterilized seeds were immersed in each solution for hydroponics containing the test compound at the given concentration, and incubated at a temperature of 28° C. for 3 days under dark conditions to stimulate the germination of the seeds.
Then, 30 ml of each solution for hydroponics containing the test compound at the given concentration was dispensed into a plastic tube (20 mm in diameter×113 mm in height) covered with a cardboard on the lateral surface for blocking a light. A float made of a styrene board and a vinyl mesh was placed on the water surface of each solution for hydroponics, and the rice seeds obtained after the stimulation of germination were placed on the float. The seeds were cultivated for 3 days under the conditions of an illuminance of 4,000 lux at the top of the tube, a temperature of 26° C., a humidity of 50%, and a day length of 16 hours.
The root length of the rice seedlings obtained after the cultivation was measured by using WinRHIZO system (manufactured by REGENT INSTRUMENTS). The average value of the root length in the treated group was calculated from the measurement values of 4 or 5 individuals. […]

Assay [2] relates to Corn (cultivar: Kuromochi). The assay can be described thus: Test Example 5: reduction of low-temperature stress by treatment of corn seeds. As to conditions: 2.5±1° C. for 4 days, then 4 days at 27° C. The protocol: Corn (cultivar: Kuromochi) A blank slurry solution containing 10% (V/V) color coat red (Becker Underwood, Inc.), 10% (V/V) CF-Clear (Becker Underwood, Inc.) and 1.66% Maxim 4FS (Syngenta) was prepared. A slurry solution was prepared by dissolving the present compound 1 in the blank slurry solution such that 0.5 g, 5 g or 50 g of the compound is applied to each 100 kg of corn seeds. In a 50-ml centrifuge tube (manufactured by BD Japan), 0.35 ml of the slurry solution was placed for each 14.4 g of corn seeds and stirred until the solution was dried, thereby coating the seeds. In addition, seeds were coated with the blank slurry solution and used as seeds for a non-treated group. One of the treated corn seeds was sown in culture soil (AISAI) in each pot (55 mm in diameter×58 mm in height) and cultivated for 10 days under the conditions of a temperature of 27° C., an illuminance of 5,000 lux, and a day length of 16 hours. The grown seedlings were used for the test. The pots at 10 days after the sowing were placed into an artificial weather control room (VHT-2-[…]-NC2-S, manufactured by Nippon Medical & Chemical Instruments Co., Ltd) and cultivated for 4 days under the following conditions: -temperature: 2.5±1° C., day length: 16 hours, and illuminance: 5,000 lux. After the low-temperature stress treatment, the plants were cultivated for 4 days under the conditions of a temperature of 27° C., an illuminance of 5,000 lux, and a day length of 16 hours. Then, the fresh weight of the overground part of the plants was measured. The experiment was performed in four replications for each treatment condition and the average weight per individual was calculated. As a result, the fresh weight of the overground part of plants in the treated group of applying 0.5 g, 5 g or 50 g of the present compound 1 to each 100 kg of seeds was much heavier than that in the non-treated group.

Assay [3] has as its system Rice (cultivar: Nipponbare). The assay can be described thus: Test Example 7: reduction of drought stress by treatment of rice seeds. Conditions: drought 2 days, then 14 days hydroponics. The protocol:
Rice (cultivar: Nipponbare) A blank slurry solution containing 5% (V/V) color coat red (Becker Underwood, Inc.), 5% (V/V) CF-Clear (Becker Underwood, Inc.) and 1% Maxim XL (Syngenta) was prepared. A slurry solution was prepared by dissolving the present compound 1 in the blank slurry solution such that 50 g or 100 g of the compound is applied to each 100 kg of rice seeds. In a 50-ml centrifuge tube (manufactured by AGC TECHNO GLASS CO., LTD.), 0.3 ml of the slurry solution was placed for each 10 g of rice seeds and stirred until the solution was dried, thereby coating the seeds. In addition, seeds were coated with the blank slurry solution and used as seeds for a non-treated group. A filter paper was placed on the holes of a plug tray having 406 holes, and the rice seeds treated above were sown on the filter paper. […] Fourteen (14) days after the treatment, the fresh weight of the overground parts of five test plants in each treated group was measured. The experiment was performed in three replications in each treated group and the average value was calculated. […]

[4] abbreviates: seed treatment 50 g per 100 kg of seeds.

`O=C(O)c1cc2cc(C(F)(F)F)ccc2s1` [The present compound 1, 5-(trifluoromethyl)benzo[b]thiophene-2-carboxylic acid]: in assay [1], the “root length of the rice seedlings vs non-treated group” value is on record as “much longer”. Moreover, the “fresh weight of the overground part of plants vs non-treated group” value in assay [2] (seed treatment 0.5 g per 100 kg of seeds), in assay [2] (seed treatment 5 g per 100 kg of seeds), in assay [2] (setting [4]), in assay [3] (setting [4]) and in assay [3] (seed treatment 100 g per 100 kg of seeds) was “much heavier” each time.
